Source: patent US4073903A, “3-Desacetoxymethyl-3- 5'(1-methyltetrazolyl)thio!methyl-7- 1-(4-nitr oimidazolyl)acetyl!aminocephalosporanic acid” (Pierrel S.p.A., priority 1975, dated 1978)
Values after ≈ are worked out from the molar mass of the structure shown. Counter-ions that a name gives are not always drawn. Like-named read-outs stand apart in the source and are kept apart here.

What was measured:
Brucella abortus = experiment: microbe, parasite or virus in culture; format: cell-based; details: 24 h, read-out: Minimum inhibitory concentration (MIC)
Pseudomonas aeruginosa = experiment: MIC, twofold serial broth dilution (Table I); format: cell-based; details: strain ISM-LRP 9, Tryptose Phosphate Broth, 37° C, 24 hours, read-out: Minimum inhibitory concentration (MIC)
Klebsiella pneumoniae [1] = experiment: MIC, twofold serial broth dilution (Table I); format: cell-based; details: strain ISM 68/67' 370 V', Tryptose Phosphate Broth, 37° C, 24 hours, read-out: Minimum inhibitory concentration (MIC)
Pasteurella multocida = experiment: MIC, twofold serial broth dilution (Table I); format: cell-based; details: ATCC6588, strain ATCC 6588, Tryptose Broth, 37° C, 24 hours, read-out: Minimum inhibitory concentration (MIC)
Shigella sonnei = experiment: MIC, twofold serial broth dilution (Table I); format: cell-based; details: strain ISM-LRP 5, Tryptose Phosphate Broth, 37° C, 24 hours, read-out: Minimum inhibitory concentration (MIC)
Source text: (§1) In Table I the minimum inhibitory concentrations (MIC) of P-75123 against a variety of Gram-positive and Gram-negative bacteria are listed.

Shigella flexneri = experiment: MIC, twofold serial broth dilution (Table I); format: cell-based; details: strain ISM-LRP 40, Tryptose Phosphate Broth, 37° C, 24 hours, read-out: Minimum inhibitory concentration (MIC)
Source text: as §1

Diplococcus pneumoniae = experiment: MIC, twofold serial broth dilution (Table I); format: cell-based; details: Streptococcus pneumoniae; strain Ty XXVII-LRP 53; Todd Hewitt Broth; 37° C, 24 hours; read-out: Minimum inhibitory concentration (MIC)
Source text: as §1

Streptococcus uberis = experiment: MIC, twofold serial broth dilution (Table I); format: cell-based; details: ATCC9927, strain ATCC 9927, Todd Hewitt Broth, 37° C, 24 hours, read-out: Minimum inhibitory concentration (MIC)
Brucella suis = experiment: microbe, parasite or virus in culture; format: cell-based; details: 24 h, read-out: Minimum inhibitory concentration (MIC)
Salmonella typhi = experiment: MIC, twofold serial broth dilution (Table I); format: cell-based; details: Salmonella enterica, 24 h, read-out: Minimum inhibitory concentration (MIC)
Proteus rettgeri = experiment: MIC, twofold serial broth dilution (Table I); format: cell-based; details: Providencia rettgeri; strain ISM-LRP 21; Mueller Hinton Broth; 37° C, 24 hours; read-out: Minimum inhibitory concentration (MIC)
Escherichia coli [2] = experiment: MIC against clinical isolates, broth dilution test (Table III); details: for MIC: Escherichia coli, 24 h
[3] = test system: wide spectrum of microorganisms both Gram-positive and Gram-negative; experiment: In vitro antimicrobial activity (overall statement); format: cell-based
[4] = test system: Enterobacter liquefaciens; experiment: MIC, twofold serial broth dilution (Table I); format: cell-based; details: strain ISM 65/33, Tryptose Phosphate Broth, 37° C, 24 hours, read-out: Minimum inhibitory concentration (MIC)
Escherichia coli [5] = experiment: MIC, twofold serial broth dilution (Table I); format: cell-based; details: ATCC19138, strain ATCC 19138 0 group 6, Tryptose Phosphate Broth, 37° C, 24 hours, read-out: Minimum inhibitory concentration (MIC)
Streptococcus faecalis = experiment: MIC, twofold serial broth dilution (Table I); format: cell-based; details: Enterococcus faecalis; strain ISM 66/54; Tryptose Phosphate Broth; 37° C, 24 hours; read-out: Minimum inhibitory concentration (MIC)
Arizona sp. = experiment: MIC, twofold serial broth dilution (Table I); format: cell-based; details: strain ISM 67/9; Tryptose Phosphate Broth; 37° C, 24 hours; read-out: Minimum inhibitory concentration (MIC)
Escherichia coli [6] = experiment: Treatment of mice systemically infected with Escherichia coli (Table V); details: in Mus musculus, 168 h, read-out: ED50 per treatment
Streptococcus mitis = experiment: MIC, twofold serial broth dilution (Table I); format: cell-based; details: ATCC9895, strain ATCC 9895 Ty V, Todd Hewitt Broth, 37° C, 24 hours, read-out: Minimum inhibitory concentration (MIC)
Staphylococcus aureus = experiment: MIC, twofold serial broth dilution (Table I); format: cell-based; details: 24 h, 37° C, read-out: Minimum inhibitory concentration (MIC)
Enterobacter cloacae = experiment: MIC, twofold serial broth dilution (Table I); format: cell-based; details: strain ISM 71/32, Tryptose Phosphate Broth, 37° C, 24 hours, read-out: Minimum inhibitory concentration (MIC)
Solubility = format: physicochemical
Proteus morganii = experiment: MIC, twofold serial broth dilution (Table I); format: cell-based; details: Morganella morganii; strain ISM-LRP 18; Mueller Hinton Broth; 37° C, 24 hours; read-out: Minimum inhibitory concentration (MIC)
Streptococcus bovis = experiment: MIC, twofold serial broth dilution (Table I); format: cell-based; details: Streptococcus equinus, ATCC15351; strain ATCC 15351; Todd Hewitt Broth; 37° C, 24 hours; read-out: Minimum inhibitory concentration (MIC)
Salmonella heidelberg = experiment: MIC against Ampicillin-resistant clinical isolates, broth dilution test (Table IV); details: Salmonella enterica, 24 h, read-out: Minimun inhibitory concentration (MIC)
Serratia marcescens = experiment: MIC, twofold serial broth dilution (Table I); format: cell-based; details: strain ISM 68/189, Mueller Hinton Broth, 37° C, 24 hours, read-out: Minimum inhibitory concentration (MIC)
Klebsiella pneumoniae [7] = experiment: MIC against clinical isolates, broth dilution test (Table II); details: for MIC: Klebsiella pneumoniae, 24 h
Salmonella essen = experiment: MIC against Ampicillin-resistant clinical isolates, broth dilution test (Table IV); details: Salmonella enterica, 24 h, read-out: Minimun inhibitory concentration (MIC)
[8] = test system: systemically infected mice; experiment: In vivo activity in systemically infected mice (overall statement); parameters: species or system Charles River CD 1 female mice; details: treatment of systemically infected mice
Citrobacter freundii = experiment: MIC, twofold serial broth dilution (Table I); format: cell-based
Proteus mirabilis = experiment: MIC, twofold serial broth dilution (Table I); format: cell-based; details: 37° C, 24 hours, read-out: Minimum inhibitory concentration (MIC)
Shigella dysenteriae = experiment: MIC, twofold serial broth dilution (Table I); format: cell-based; details: 24 h, read-out: Minimum inhibitory concentration (MIC)
Klebsiella pneumoniae [9] = details: in Mus musculus, 168 h, read-out: ED50 per treatment
Salmonella wien = experiment: MIC against Ampicillin-resistant clinical isolates, broth dilution test (Table IV); details: Salmonella enterica, 24 h
Stability as a solid = format: physicochemical
[10] = read-out: Minimum inhibitory concentration (MIC)

Cn1nnnc1SCC1=C(C(=O)O)N2C(=O)C(NC(=O)Cn3cnc([N+](=O)[O-])c3)C2SC1 (stereo not shown) [P-75123, 7-1-(1H-4-nitroimidazolyl)acetyl!amino-3-5-(1H-1-methyltetrazolyl)thio!methyl-3-cephem-4-carboxylic acid]
MIC (Brucella abortus): 25 µg/mL (≈ 51.9 µM) | MIC (Pseudomonas aeruginosa): > 100 µg/mL | MIC (Klebsiella pneumoniae [1]): 0.78 µg/mL (≈ 1.62 µM) | MIC (Pasteurella multocida): 0.39 µg/mL (≈ 0.81 µM) | MIC (Shigella sonnei): 1.56 µg/mL (≈ 3.24 µM) | MIC (Shigella flexneri): 0.78 µg/mL (≈ 1.62 µM) | MIC (Diplococcus pneumoniae): 0.097 µg/mL (≈ 0.201 µM) | MIC (Streptococcus uberis): 0.097 µg/mL (≈ 0.201 µM) | MIC (Brucella suis): 12.5 µg/mL (≈ 26 µM) | MIC (Salmonella typhi): 0.78 µg/mL (≈ 1.62 µM) | MIC (Proteus rettgeri): 25 µg/mL (≈ 51.9 µM) | MIC (Escherichia coli [2]; [10]): 1.56 µg/mL (≈ 3.24 µM) | MIC (Escherichia coli [2]; read-out: Minimum inhibitory concentration (MIC), clinical isolate LRP 87): 3.12 µg/mL (≈ 6.48 µM) | MIC (Escherichia coli [2]; read-out: Minimum inhibitory concentration (MIC), clinical isolate LRP 110): 0.78 µg/mL (≈ 1.62 µM) | MIC (Escherichia coli [2]; read-out: Minimum inhibitory concentration (MIC), clinical isolate LRP 143): 0.78 µg/mL (≈ 1.62 µM) | MIC (Escherichia coli [2]; read-out: Minimum inhibitory concentration (MIC), clinical isolate LRP 152): 50 µg/mL (≈ 104 µM) | MIC (Escherichia coli [2]; read-out: Minimum inhibitory concentration (MIC), clinical isolate LRP 159): 0.78 µg/mL (≈ 1.62 µM) | Minimum inhibitory concentration (MIC) (Escherichia coli [2]; clinical isolate LRP 96): 1.56 µg/mL (≈ 3.24 µM) | Minimum inhibitory concentration (MIC) (Escherichia coli [2]; clinical isolate LRP 150): 1.56 µg/mL (≈ 3.24 µM) | Minimum inhibitory concentration (MIC) (Escherichia coli [2]; clinical isolate LRP 151): 1.56 µg/mL (≈ 3.24 µM) | Minimum inhibitory concentration (MIC) (Escherichia coli [2]; clinical isolate LRP 154): 1.56 µg/mL (≈ 3.24 µM) | Minimum inhibitory concentration (MIC) (Escherichia coli [2]; clinical isolate LRP 155): 1.56 µg/mL (≈ 3.24 µM) | Minimum inhibitory concentration (MIC) (Escherichia coli [2]; clinical isolate LRP 156): 1.56 µg/mL (≈ 3.24 µM) | Minimum inhibitory concentration (MIC) (Escherichia coli [2]; clinical isolate LRP 158): 1.56 µg/mL (≈ 3.24 µM) | Minimum inhibitory concentration (MIC) (Escherichia coli [2]; clinical isolate LRP 163): 1.56 µg/mL (≈ 3.24 µM) | "in vitro" antimicrobial activity [3]: high antimicrobial activity | MIC [4]: 100 µg/mL (≈ 208 µM) | MIC (Escherichia coli [5]): 0.78 µg/mL (≈ 1.62 µM) | MIC (Streptococcus faecalis): 100 µg/mL (≈ 208 µM) | MIC (Arizona sp.): 0.78 µg/mL (≈ 1.62 µM) | ED50 (Escherichia coli [6]): 35 mg/kg | MIC (Streptococcus mitis): 0.195 µg/mL (≈ 0.405 µM) | MIC (Staphylococcus aureus; strain ATTC 653P, Tryptose Phosphate Broth): 0.195 µg/mL (≈ 0.405 µM) | MIC (Staphylococcus aureus; strain ISM 72/10, Tryptose Phosphate Broth): 0.78 µg/mL (≈ 1.62 µM) | MIC (Enterobacter cloacae): > 100 µg/mL | Solubility in dimethylsulfoxide (Solubility; crystals, dimethylsulfoxide): soluble in dimethylsulfoxide | Solubility in water (Solubility; crystals, water): practically insoluble in water | MIC (Proteus morganii): 50 µg/mL (≈ 104 µM) | MIC (Streptococcus bovis): 0.049 µg/mL (≈ 0.102 µM) | MIC (Salmonella heidelberg): 1.56 µg/mL (≈ 3.24 µM) | MIC (Serratia marcescens): 100 µg/mL (≈ 208 µM) | MIC (Klebsiella pneumoniae [7]; [10]): 1.56 µg/mL (≈ 3.24 µM) | MIC (Klebsiella pneumoniae [7]; read-out: Minimum inhibitory concentration (MIC), clinical isolate LRP 129): 0.39 µg/mL (≈ 0.81 µM) | MIC (Klebsiella pneumoniae [7]; read-out: Minimum inhibitory concentration (MIC), clinical isolate LRP 130): 6.25 µg/mL (≈ 13 µM) | MIC (Klebsiella pneumoniae [7]; read-out: Minimum inhibitory concentration (MIC), clinical isolate LRP 131): 3.12 µg/mL (≈ 6.48 µM) | MIC (Klebsiella pneumoniae [7]; read-out: Minimum inhibitory concentration (MIC), clinical isolate LRP 132): 0.39 µg/mL (≈ 0.81 µM) | MIC (Klebsiella pneumoniae [7]; read-out: Minimum inhibitory concentration (MIC), clinical isolate LRP 133): 0.78 µg/mL (≈ 1.62 µM) | MIC (Klebsiella pneumoniae [7]; read-out: Minimum inhibitory concentration (MIC), clinical isolate LRP 135): 3.12 µg/mL (≈ 6.48 µM) | MIC (Klebsiella pneumoniae [7]; read-out: Minimum inhibitory concentration (MIC), clinical isolate LRP 136): 3.12 µg/mL (≈ 6.48 µM) | MIC (Klebsiella pneumoniae [7]; read-out: Minimum inhibitory concentration (MIC), clinical isolate LRP 137): 0.78 µg/mL (≈ 1.62 µM) | Minimum inhibitory concentration (MIC) (Klebsiella pneumoniae [7]; clinical isolate LRP 134): 1.56 µg/mL (≈ 3.24 µM) | MIC (Salmonella essen): 1.56 µg/mL (≈ 3.24 µM) | activity "in vivo" [8]: very good activity | MIC (Citrobacter freundii; 24 h, read-out: Minimum inhibitory concentration (MIC), strain ISM 65/74, Tryptose Phosphate Broth, 37° C): 1.56 µg/mL (≈ 3.24 µM) | MIC (Citrobacter freundii; strain ISM 69/30, Tryptose Phosphate Broth, 37° C, 24 hours, read-out: Minimum inhibitory concentration (MIC)): 0.78 µg/mL (≈ 1.62 µM) | MIC (Proteus mirabilis; ATCC10005, strain ATCC 10005, Mueller Hinton Broth): 3.12 µg/mL (≈ 6.48 µM) | MIC (Proteus mirabilis; strain ISM 66/53, Mueller Hinton Broth): 3.12 µg/mL (≈ 6.48 µM) | MIC (Shigella dysenteriae): 0.78 µg/mL (≈ 1.62 µM) | ED50 (Klebsiella pneumoniae [9]): 49 mg/kg | MIC (Salmonella wien; read-out: Minimun inhibitory concentration (MIC), Ampicillin-resistant clinical isolate LRP 138): 3.12 µg/mL (≈ 6.48 µM) | MIC (Salmonella wien; read-out: Minimun inhibitory concentration (MIC), Ampicillin-resistant clinical isolate LRP 140): 6.25 µg/mL (≈ 13 µM) | MIC (Salmonella wien; read-out: Minimun inhibitory concentration (MIC), Ampicillin-resistant clinical isolate LRP 141): 6.25 µg/mL (≈ 13 µM)

Cn1nnnc1SCC1=C(C(=O)O)N2C(=O)C(NC(=O)Cn3cnc([N+](=O)[O-])c3)C2SC1 (stereo not shown) [sodium salt]
Stability (Stability as a solid): stable as a solid | solubility (Solubility; sodium salt, water): ~500 mg/mL
